Measured values reported in patent publication US20090175911A1, “Bacterial Production of Carotenoids” (ROYAL HOLLOWAY AND BEDFORD NEW COLLEGE, priority 2005, published 2009).
In brackets after ≈: the same amount, converted by molar mass. Like-named read-outs stand apart in the source and are kept apart here.

Assays:
[1] = Gastric stability of carotenoids in simulated gastric fluid (SGF); type: in vitro ADME; conditions: SGF (1 mg/ml pepsin, 0.9% NaCl, pH 2), 37° C., by 20 minutes, versus 0 minutes
HU36 [2] = experiment: MIC determination; type: cell-based; conditions: Bacillus
PY79 [3] = experiment: MIC determination; type: cell-based; conditions: Bacillus subtilis
[4] = strains with MICs equal or higher are considered resistant, cited from earlier work
PY79 [5] = experiment: Disc diffusion antibiogram; conditions: 6 mm discs, amount per disc in brackets after each antibiotic, 18 h at 37° C., three experiments
HU36 [6] = experiment: Disc diffusion antibiogram; type: cell-based, Bacillus
Natto = experiment: Disc diffusion antibiogram; conditions: 6 mm discs, amount per disc in brackets after each antibiotic, 18 h at 37° C., three experiments

Compound	MIC (HU36 [2]) [µg/mL]	MIC (PY79 [3]) [µg/mL]	Zone of inhibition (mm) (PY79 [5])	Zone of inhibition (mm) (Natto)	further results
CC1=C(/C=C/C(C)=C/C=C/C(C)=C/C=C/C=C(C)/C=C/C=C(C)/C=C/C2=C(C)CCCC2(C)C)C(C)(C)CCC1 [carotenoid standard, beta-carotene]	–	–	–	–	carotenoid remaining [1]: less than 1%
CCC[C@@H]1C[C@@H](C(=O)N[C@@H]([C@H]2O[C@H](SC)[C@H](O)[C@@H](O)[C@H]2O)[C@H](C)Cl)N(C)C1 [Clindamycin]	8 (≈ 18.8 µM)	0.05 (≈ 0.118 µM)	–	–	–
CC(C)(O/N=C(\C(=O)N[C@@H]1C(=O)N2C(C(=O)[O-])=C(C[n+]3ccccc3)CS[C@H]12)c1csc(N)n1)C(=O)O [Ceftazidime]	0.05 (≈ 0.0915 µM)	0.025 (≈ 0.0457 µM)	–	–	–
Gentamycin	–	–	–	–	Breakpoints EFSA ([4]; (EFSA, 2005)): 4 mg/L; Breakpoints SCAN ([4]; (SCAN, 2002)): 8 mg/L
CCn1cc(C(=O)O)c(=O)c2ccc(C)nc21 [Naladixic acid]	–	–	20.7 ± 1.2	23 ± 1.7	Zone of inhibition (mm) (HU36 [6]; HU36, 6 mm discs, amount per disc in brackets after each antibiotic, 18 h at 37° C., three experiments): 22.8 ± 1.4 mm
O=C(O)c1cn(C2CC2)c2cc(N3CCNCC3)c(F)cc2c1=O [Ciporfloxacin]	–	–	32.8 ± 1	33.3 ± 1.5	Zone of inhibition (mm) (HU36 [6]): 29.7 ± 0.6 mm
